Experimental data from patent publication US20240254096A1, “ULTRAVIOLET AND VISIBLE RADIATION ABSORBING COMPOUNDS” (ELKIMIA INC., priority 2021, published 2024).

Experiment: SPF in vitro / UVA PF from UV transmittance through thin film on PMMA plates
Conditions: for SPF in vitro mean / UV APF: 0.75 mg/cm^2; for SPF P / UV APF P: P (after irradiation, 800 J/m^2-eff)
Protocol: For determining the SPF in vitro value, the protection performance of compounds according to certain embodiments of the present technology, against erythemally-effective UV radiation, largely confined to the UVB (290-320 nm) and short-wavelength UVA (320-340) region, was calculated from the measured in vitro transmittance. The in vitro UVA PF, the UVA protection (320-400 nm), was calculated from the measured in vitro transmittance after irradiation. The Critical Wavelength Value was defined as the wavelength at which the integral of the spectral absorbance curve reached 90% of the integral over the UV spectrum from 290 to 400 nm. It has been settled that this value must be equal or over 370 nm so as to classify the product as broad-spectrum. The study consisted in a comparative assay of non-treated plates against plates treated with each of the compounds and was based on the evaluation of UV-transmittance through a thin film of sunscreen sample spread on a roughened substrate, before an after exposure to a controlled dose of UV radiation from a UV source. A Kontron 933 spectrophotometer equipped with a UV source, an integrating sphere and a monochromatic light able to deliver a flow of energy between 290 and 400 nm was used. The transmittance values were measured at 1 nm intervals. A 10-4 precision laboratory balance was used to control deposited product weight. The irradiation was provided by Sunset Atlas CPS+ with standard filter. Temperature regulation of the equipment was done in the range of 25-35° C. A pre-irradiation dose of 4 times 200 J/m^2-eff (800 J/m^2-eff) was delivered. The substrate was the material to which the sunscreen product was applied. Polymethylmethacrylate (PMMA) plates were used and were roughened on one side to a three-dimensional surface topography of 5 micrometers. Each compound was weighted and applied evenly to the PMMA plate with a 2-phase spreading to achieve a 0.75 mg/cm^2 weight/surface ratio. Spreading was performed with a light spreading move for approximately 30 seconds followed by spreading with greater pressure for approximately 30 seconds. The resulting sample was left to equilibrate for 15 minutes in the dark at room temperature to ensure a self-leveling of the formula. To account for lack of photostability, a pre-irradiation was necessary. The pre-irradiation dose was 4 minimal erythema dose (MEDs), equivalent to 800 J/m^2-eff. Five measurements of spectral irradiance transmitted for each wavelength through the PMMA plate covered with the sunscreen product were obtained after pre-irradiation of the sunscreen product [P1( ), P2( ), P3( ), P4( ) and P5( )]. For each compound, mean absorbance values were determined from at least three individual PMMA plates. To validate the accuracy of the results, a control product with an established SPF of 18-20, Lot 11T0313 was tested simultaneously with the compounds. SPF in vitro was calculated for each plate using the Colipa 2011 equation.

CCOC(=O)CNC1=C/C(=N/c2ccc(/N=N/c3ccc([N+](=O)[O-])cc3)cc2)CC(C)(C)C1 [Formula 35]
SPF Change %: 7%
ΔSPF: 2
SPF in vitro mean: 21.53
UV APF: 17.35
SPF P: 17.94
UV APF P: 14.64

COC(=O)C1CSC2=C(CC(C)(C)C/C2=N\c2ccc(OC)cc2)N1 (stereo not drawn) [Formula 43]
SPF Change %: 4%
ΔSPF: 1
SPF in vitro mean: 20.84
UV APF: 4.02
SPF P: 18.59
UV APF P: 3.94

CCOC(=O)CNC1=CC(Nc2ccc(OC)cc2)CC(C)(C)C1 (stereo not drawn) [Formula 72]
SPF Change %: 18%
ΔSPF: 4
SPF in vitro mean: 23.61
UV APF: 2.85
SPF P: 21.12
UV APF P: 2.74

COc1ccc(NC2C=C(NCC(=O)O)CC(C)(C)C2)cc1 (stereo not drawn) [Formula 73]
SPF Change %: 61%
ΔSPF: 12
SPF in vitro mean: 32.31
UV APF: 16.05
SPF P: 27.60
UV APF P: 13.08
